Experimental data from patent publication US12544396B2, “Compositions and methods for treating metabolic disease” (VOGENX, priority 2019, dated 2026).

Key:
[1] = Oral glucose tolerance test (OGTT) in normal rats: plasma glucose and plasma insulin; assay type: in vivo; settings: for Plasma glucose 0 hr / Plasma insulin 0 hr / Plasma glucose 0.25 hr / Plasma insulin 0.25 hr / Plasma glucose 0.5 hr / Plasma insulin 0.5 hr / Plasma glucose 1 hr / Plasma insulin 1 hr / Plasma glucose 2 hr / Plasma insulin 2 hr / Plasma glucose 4 hr / Plasma insulin 4 hr / Plasma glucose ΔAUC 0-1 hr / Plasma insulin ΔAUC 0-1 hr: oral, KGT-1681 3 mg/kg, KGA-3235 0.03 mg/kg, Combo 3 and 0.03 mg/kg; for Effect on increase in plasma glucose after glucose loading: FIG. 1A; for Two-way ANOVA main effect in AUC0-1hr for plasma glucose: FIG. 1B; for Effect on plasma insulin: FIG. 2A
Method: Example 1. Combination treatment with mizagliflozin and remogliflozin. Combination treatment with KGT-1681 and KGA-3235 in normal rats. KGT-1681 was suspended in 0.1% methylcellulose (MC) and KGA-3235 was dissolved in distilled water (DW). Rats (9 weeks of age) were divided into the following four groups and treated as indicated: vehicle, 0.1% MC+DW; KGT, KGT-1681 (3 mg/kg, 5 mL/kg) plus DW; KGA, 0.1% MC plus KGA-3235 (0.03 mg/kg, 5 mL/kg); and Combo, KGT-1681 plus KGA-3235 (3 and 0.03 mg/kg, respectively). After 16 h fasting, the drug and glucose solution (400 g/L, 5 ml/kg) were orally administered to rats. Blood was obtained in heparinized and aprotinin-treated tubes from a tail vein at each sampling point. Plasma glucose concentration was determined using a Glucose CII-test Wako (Wako Pure Chemicals, Osaka, Japan). Plasma insulin was determined using an enzyme-linked immunosorbent assay kit (Morinaga Institute of Biological Science, Inc., Yokohama, Japan). The area under the curve (AUC)0-1 hr for plasma glucose and insulin were calculated from the plasma glucose and insulin concentrations during the OGTT (Table 1).

[2] = pre-treatment before mixed meal, cited from earlier work
[3] = orally administered to rat, in comparison with no compound; cited from earlier work

SMILES	Plasma glucose 0 hr [1] [mg/dL]	Plasma insulin 0 hr [1] [pg/mL]	Plasma glucose 0.25 hr [1] [mg/dL]	Plasma insulin 0.25 hr [1] [pg/mL]	Plasma glucose 0.5 hr [1] [mg/dL]	Plasma insulin 0.5 hr [1] [pg/mL]	Plasma glucose 1 hr [1] [mg/dL]	Plasma insulin 1 hr [1] [pg/mL]	Plasma glucose 2 hr [1] [mg/dL]	Plasma insulin 2 hr [1] [pg/mL]	Plasma glucose 4 hr [1] [mg/dL]	Plasma insulin 4 hr [1] [pg/mL]	Effect on increase in plasma glucose after glucose loading [1]	Two-way ANOVA main effect in AUC0-1hr for plasma glucose [1]	Effect on plasma insulin [1]	Plasma glucose ΔAUC 0-1 hr [1] [mg·h/dL]	Plasma insulin ΔAUC 0-1 hr [1] [pg·h/mL]	also measured
CCOC(=O)OC[C@H]1O[C@@H](Oc2nn(C(C)C)c(C)c2Cc2ccc(OC(C)C)cc2)[C@H](O)[C@@H](O)[C@@H]1O [KGT-1681, 5-methyl-4-[4-(1-methylethoxy)benzyl]-1-(1-methylethyl)-1H-pyrazol-3-yl 6-O-(ethoxycarbonyl)-β-D glucopyranoside]	101 ± 3	380 ± 29	146 ± 5	1219 ± 183	163 ± 7	978 ± 182	168 ± 6	1187 ± 152	113 ± 5	425 ± 40	85 ± 2	338 ± 92	inhibited the increase in plasm glucose	significant main effect	decreased	152 ± 5	1020 ± 148	
OC[C@H]1O[C@@H](c2ccc(Cl)c(Cc3ccc(O[C@H]4CCOC4)cc3)c2)[C@H](O)[C@@H](O)[C@@H]1O [empagliflozin]																		Severity of hypoglycemic events ([2]; versus placebo, p=0.037): significantly reduced; Nadir glucose values [2]: significantly increased; Events requiring rescue glucose administration ([2]; placebo 7 of 12 patients): two
CCOC(=O)OC[C@H]1O[C@@H](Oc2ccccc2Cc2ccc(OC)cc2)[C@H](O)[C@@H](O)[C@@H]1O [2-(4-methoxybenzyl)phenyl 6-O-ethoxycarbonyl-β-D-glucopyranoside]																		Increase of lipid accumulative amount in rat liver [3]: inhibited significantly
Cc1cc(OCCCNCC(C)(C)C(N)=O)ccc1Cc1c(O[C@@H]2O[C@H](CO)[C@@H](O)[C@H](O)[C@H]2O)n[nH]c1C(C)C [KGA-3235, 3-(3-{4-[3-(β-D-glucopyranosyloxy)-5-isopropyl-1H-pyrazol-4-ylmethyl-]-3-methylphenoxy}propylamino)-2,2-dimethylpropionamide]	92 ± 4	278 ± 25	147 ± 7	1197 ± 146	164 ± 5	1014 ± 131	169 ± 5	933 ± 111	136 ± 2	551 ± 98	80 ± 3	286 ± 39	inhibited the increase in plasm glucose	significant main effect	decreased	152 ± 4	948 ± 88	
